Source: US8541579B2, “Substituted diketopiperazines as oxytocin antagonists” (Glaxo Group Limited, priority 2001, dated 2013)

Tested on: rats
Assay: Administration to rats p.o. for 4 days, toxicological effects
Assay type: in vivo
Conditions: doses of up to 300 mg/kg p.o for 4 days
From the text: The compounds of the invention are essentially non toxic at therapeutically active doses.

CC(C)C[C@@H]1C(=O)N[C@H](C2Cc3ccccc3C2)C(=O)N1[C@@H](C(=O)N(C)C)c1ccc(F)cc1F [Example 10, (2R)-2-(2,4-difluorophenyl)-2-[(3R,6R)-3-(2,3-dihydro-1H-inden-2-yl)-6-isobutyl-2,5-dioxopiperazin-1-yl]-N,N-dimethylethanamide]
adverse toxicological effects: no adverse toxicological effects were observed
